2 sequences from patent US20070128217A1 (priority 2003, published 2007) can be followed below.

In test [1] the test system is rabbit serum obtained by immunizing a rabbit with the SARS-CoV strain Frankfurt 1. In kind it is binding. The arrangement: Binding of a rabbit serum to linear peptides / Binding of a rabbit serum to looped peptides / Rabbit serum linear peptides / Rabbit serum looped peptides / Binding of a rabbit serum to linear peptides of protein N of SARS-CoV Urbani (Rabbit serum linear peptides) / Binding of a rabbit serum to looped/cyclic peptides of protein N of SARS-CoV Urbani (Rabbit serum looped peptides): unit not given here.

Test [2] relates to antibodies in sera from SARS patients (sera 1a, 1b, 2, 6, 37, 62, London, SARS-yellow, SARS-green). Format: binding, human. Further details: Binding of serum 6 to linear peptides of protein X1 of SARS-CoV Urbani / Binding of serum 37 to linear peptides of protein X1 of SARS-CoV Urbani / Binding of serum 6 to looped/cyclic peptide (PEPSCAN-ELISA) / Binding of serum 37 to looped/cyclic peptide (PEPSCAN-ELISA) / Binding of serum 37 to looped/cyclic peptides of protein X1 of SARS-CoV Urbani / Binding of serum 6 to linear peptides of protein X2 / Binding of serum 37 to linear peptides of protein X2 / Binding of serum 37 to looped/cyclic peptides of protein X2 of SARS-CoV Urbani / Binding of serum 6 to linear peptides of protein M of SARS-CoV Urbani / Binding of serum 37 to linear peptides of protein M of SARS-CoV Urbani / Binding of serum 6 to looped/cyclic peptides of protein M of SARS-CoV Urbani / Binding of serum 37 to looped/cyclic peptides of protein M of SARS-CoV Urbani / Binding of serum 6 to linear peptides of protein X3 of SARS-CoV Urbani / Binding of serum 37 to linear peptides of protein X3 of SARS-CoV Urbani / Binding of serum 37 to looped/cyclic peptides of protein X3 of SARS-CoV Urbani / Binding of serum 6 to linear peptides of protein X4 of SARS-CoV Urbani / Binding of serum 37 to linear peptides of protein X4 of SARS-CoV Urbani / Binding of serum 37 to looped/cyclic peptides of protein X4 of SARS-CoV Urbani / Binding of serum 6 to linear peptides of protein X5 of SARS-CoV Urbani / Binding of serum 37 to linear peptides of protein X5 of SARS-CoV Urbani / Binding of serum 37 to looped/cyclic peptides of protein X5 of SARS-CoV Urbani / Binding of serum 6 to linear peptides of protein N of SARS-CoV Urbani / Binding of serum 37 to linear peptides of protein N of SARS-CoV Urbani / Binding of serum 6 to linear peptide (PEPSCAN-ELISA) / Binding of serum 1a to looped/cyclic peptides of protein N of SARS-CoV Urbani / Binding of serum 1b to looped/cyclic peptides of protein N of SARS-CoV Urbani / Binding of serum 2 to looped/cyclic peptides of protein N of SARS-CoV Urbani / Binding of serum 6 to looped/cyclic peptides of protein N of SARS-CoV Urbani / Binding of serum 37 to looped/cyclic peptides of protein N of SARS-CoV Urbani / Binding of serum 62 to looped/cyclic peptides of protein N of SARS-CoV Urbani / Binding of serum London to looped/cyclic peptides of protein N of SARS-CoV Urbani / Binding of serum SARS-green to looped/cyclic peptides of protein N of SARS-CoV Urbani: unit not given here.

The test system of test [3] is control sera (pooled serum of ten healthy LUMC hospital workers; commercial negative donor pooled serum from the Dutch bloodbank). In kind it is binding, human. The arrangement: Binding of Control serum LUMC to linear peptides / Binding of Control serum Blood-bank to linear peptides / Binding of Control serum LUMC to looped peptides / Binding of Control Serum Blood-Bank to Looped peptides / Binding of Control serum LUMC to linear peptides of the protein M of SARS-CoV Urbani / Binding of Control serum Blood-bank to linear peptides of the protein M of SARS-CoV Urbani / Binding of Control serum LUMC to looped peptides of the protein M of SARS-CoV Urbani / Binding of Control Serum Blood-Bank to Looped peptides of the protein M of SARS-CoV Urbani: unit not given here.

As for SLPFGWLVIGVAFLA, in test [1], the “Binding of a rabbit serum to linear peptides” value is on record as 0.4 and the “Binding of a rabbit serum to looped peptides” value stood at 0.1. Moreover, in test [2], the “Binding of serum 1a to linear peptides of protein X1 of SARS-CoV Urbani” value is 0.7, the “Binding of serum 1a to looped/cyclic peptide (PEPSCAN-ELISA)” value stood at 0.3, the “Binding of serum 1b to linear peptides of protein X1 of SARS-CoV Urbani” value was found to be 0.6 and the “Binding of serum 1b to looped/cyclic peptide (PEPSCAN-ELISA)” value amounted to 0.2. Also, in test [2], the “Binding of serum 2 to linear peptides of protein X1 of SARS-CoV Urbani” value was 0.5, the “Binding of serum 2 to looped/cyclic peptide (PEPSCAN-ELISA)” value is on record as 0.2, the “Binding of serum 6 to linear peptides of protein X1 of SARS-CoV Urbani” value is 0.4 and the “Binding of serum 6 to looped/cyclic peptide (PEPSCAN-ELISA)” value came out at 0.0. For the same sequence, in test [2], the “Binding of serum 37 to linear peptides of protein X1 of SARS-CoV Urbani” value is on record as 0.6, the “Binding of serum 37 to looped/cyclic peptide (PEPSCAN-ELISA)” value was 0.3, the “Binding of serum 62 to linear peptides of protein X1 of SARS-CoV Urbani” value was 0.5 and the “Binding of serum 62 to looped/cyclic peptide (PEPSCAN-ELISA)” value was found to be 0.3. In test [2], the “Binding of serum London to linear peptides of protein X1 of SARS-CoV Urbani” value stood at 0.2, the “Binding of serum London to looped/cyclic peptide (PEPSCAN-ELISA)” value was determined as 0.2, the “Binding of serum SARS-green to linear peptides of protein X1 of SARS-CoV Urbani” value is given as 0.2 and the “Binding of serum SARS-green to looped/cyclic peptide (PEPSCAN-ELISA)” value worked out at 0.3. Also, in test [2], the “Binding of serum SARS-yellow to linear peptides of protein X1 of SARS-CoV Urbani” value is reported as 0.4 and the “Binding of serum SARS-yellow to looped/cyclic peptide (PEPSCAN-ELISA)” value was found to be 0.2. Also, in test [3], the “Binding of Control Serum Blood-Bank to Looped peptides” value amounted to 0.4, the “Binding of Control serum Blood-bank to linear peptides” value is recorded as 0.6, the “Binding of Control serum LUMC to linear peptides” value came out at 0.6 and the “Binding of Control serum LUMC to looped peptides” value is recorded as 0.3.

Turning to SLYMAISPKFTTSLS, in test [1], the “Binding of a rabbit serum to linear peptides” value is on record as 0.2 and the “Binding of a rabbit serum to looped peptides” value is 0.3. Further, in test [2], the “Binding of serum 1a to linear peptides of protein X2” value stood at 0.7, the “Binding of serum 1a to looped/cyclic peptides of protein X2 of SARS-CoV Urbani” value is given as 0.6, the “Binding of serum 1b to linear peptides of protein X2” value was 0.5 and the “Binding of serum 1b to looped/cyclic peptides of protein X2 of SARS-CoV Urbani” value amounted to 0.6. For the same sequence, in test [2], the “Binding of serum 2 to linear peptides of protein X2” value was 0.5, the “Binding of serum 2 to looped/cyclic peptides of protein X2 of SARS-CoV Urbani” value worked out at 0.3, the “Binding of serum 6 to linear peptides of protein X2” value came out at 0.4 and the “Binding of serum 6 to looped/cyclic peptides of protein X2 of SARS-CoV Urbani” value stood at 0.4. Also, in test [2], the “Binding of serum 37 to linear peptides of protein X2” value amounted to 0.6, the “Binding of serum 37 to looped/cyclic peptides of protein X2 of SARS-CoV Urbani” value was found to be 0.4, the “Binding of serum 62 to linear peptides of protein X2” value is listed as 0.6 and the “Binding of serum 62 to looped/cyclic peptides of protein X2 of SARS-CoV Urbani” value came out at 0.5. For the same sequence, in test [2], the “Binding of serum London to linear peptides of protein X2” value is listed as 0.6, the “Binding of serum London to looped/cyclic peptides of protein X2 of SARS-CoV Urbani” value was determined as 0.3, the “Binding of serum SARS-green to linear peptides of protein X2” value is recorded as 0.6 and the “Binding of serum SARS-green to looped/cyclic peptides of protein X2 of SARS-CoV Urbani” value is 0.5. In test [2], the “Binding of serum SARS-yellow to linear peptides of protein X2” value was determined as 0.6 and the “Binding of serum SARS-yellow to looped/cyclic peptides of protein X2 of SARS-CoV Urbani” value is on record as 0.6. Besides, in test [3], the “Binding of Control Serum Blood-Bank to Looped peptides” value worked out at 0.6, the “Binding of Control serum Blood-bank to linear peptides” value was determined as 0.7, the “Binding of Control serum LUMC to linear peptides” value is 0.6 and the “Binding of Control serum LUMC to looped peptides” value is listed as 0.9.
